{"source": "patent US20040038890A1", "about": "“Human voltage-gated potassium channel subunit” (priority 1998, published 2004)", "origin": "cited, not measured here", "key": {"[1]": {"test_system": "Kv2.1 and Kv2.1/rKv9.3 complexes", "settings": "Kv2.1 compared with Kv2.1/rKv9.3"}, "[2]": {"test_system": "potassium currents in rat pulmonary artery myocytes"}, "[3]": {"target": "Kv2.1/rKv9.3 (Rattus norvegicus, UniProt O88759+P15387)", "sequence (P15387 whole entry)": "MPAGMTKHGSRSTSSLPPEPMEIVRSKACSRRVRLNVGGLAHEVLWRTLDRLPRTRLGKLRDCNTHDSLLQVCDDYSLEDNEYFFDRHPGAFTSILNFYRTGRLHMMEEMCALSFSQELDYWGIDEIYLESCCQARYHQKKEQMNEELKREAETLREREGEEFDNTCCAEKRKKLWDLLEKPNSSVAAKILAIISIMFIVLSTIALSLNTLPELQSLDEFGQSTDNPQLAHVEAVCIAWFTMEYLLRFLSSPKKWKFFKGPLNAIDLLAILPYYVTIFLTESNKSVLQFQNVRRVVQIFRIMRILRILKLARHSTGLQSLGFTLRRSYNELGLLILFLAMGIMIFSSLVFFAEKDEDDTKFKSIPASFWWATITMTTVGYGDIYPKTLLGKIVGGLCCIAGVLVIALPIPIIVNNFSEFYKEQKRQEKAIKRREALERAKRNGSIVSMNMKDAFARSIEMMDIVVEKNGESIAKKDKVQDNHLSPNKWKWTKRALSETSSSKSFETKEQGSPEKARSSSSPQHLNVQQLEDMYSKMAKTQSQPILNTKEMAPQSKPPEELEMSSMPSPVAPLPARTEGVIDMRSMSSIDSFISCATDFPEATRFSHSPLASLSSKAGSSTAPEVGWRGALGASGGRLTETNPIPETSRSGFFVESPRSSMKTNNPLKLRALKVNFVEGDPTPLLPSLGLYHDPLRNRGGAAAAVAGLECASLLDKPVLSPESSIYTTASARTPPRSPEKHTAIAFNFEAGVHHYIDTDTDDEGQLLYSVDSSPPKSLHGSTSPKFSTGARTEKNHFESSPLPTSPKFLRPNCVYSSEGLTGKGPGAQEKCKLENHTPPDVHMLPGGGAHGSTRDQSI", "sequence (O88759 whole entry)": "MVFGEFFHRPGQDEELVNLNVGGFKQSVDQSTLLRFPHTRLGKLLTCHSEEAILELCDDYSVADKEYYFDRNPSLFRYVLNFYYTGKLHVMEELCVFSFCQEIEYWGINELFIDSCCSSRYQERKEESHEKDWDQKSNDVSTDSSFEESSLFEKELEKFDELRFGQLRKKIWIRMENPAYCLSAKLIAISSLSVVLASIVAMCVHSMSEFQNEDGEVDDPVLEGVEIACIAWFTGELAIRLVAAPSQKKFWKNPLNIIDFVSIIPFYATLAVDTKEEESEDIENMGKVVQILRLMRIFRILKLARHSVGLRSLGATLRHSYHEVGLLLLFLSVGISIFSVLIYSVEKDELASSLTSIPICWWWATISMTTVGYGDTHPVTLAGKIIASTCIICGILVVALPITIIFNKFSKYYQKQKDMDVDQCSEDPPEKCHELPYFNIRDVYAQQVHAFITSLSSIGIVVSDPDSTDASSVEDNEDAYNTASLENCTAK", "settings": "Kv2.1/rKv9.3 versus Kv2.1 alone, Xenopus oocytes"}}}
{"compound": "CCN[C@@H](C)Cc1cccc(C(F)(F)F)c1", "note": "[DFF, dex-fenfluramine]", "values": [{"measurement": "sensitivity of Kv2.1 and Kv2.1/rKv9.3 complexes", "setting": "[1]", "result": "similarly sensitive"}, {"measurement": "effect on potassium currents", "setting": "[2]", "result": "inhibit potassium currents"}]}
{"compound": "CC[N+](CC)(CC)CC.[Cl-]", "note": "[TEA, tetraethylammonium chloride]", "values": [{"measurement": "decrease in sensitivity of Kv2.1 when co-expressed with rKv9.3", "setting": "[3]", "result": 3, "unit": "fold"}]}
{"compound": "aminorex fumarate", "values": [{"measurement": "effect on potassium currents", "setting": "[2]", "result": "inhibit potassium currents"}]}
